Results taken from PubChem BioAssay AID2060891 (Molecular Pharmacology Branch, DTP, NCI, 2025).

System: K98450-129-R-PDC complex spheroid growth, percent test/control
Test: Anticancer human tumor K98450-129-R-PDC patient-derived colon adenocarcinoma cell line growth inhibition [RAS]
Conditions: for IC50: curve of first compound; for viability, T/C: stronger effect = lower value
Method in brief: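 Multi-cell-type spheroids: tumor cells plus HUVEC endothelial cells and mesenchymal stem cells. RAS-pathway inhibitors were combined with targeted agents, each dosed in half-log steps down from clinical Cmax, or from 10 microM when Cmax was unknown.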
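Note: spheroids exposed to agents for seven days before the viability readout.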
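Throughout, for viability, T/C: luminescence used as a proxy for viable cell amount.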

Question: `CCc1c2c(nc3ccc(O)cc13)-c1cc3c(c(=O)n1C2)COC(=O)[C@]3(O)CC` + CCn1c(-c2cc(N3CCN(C)CC3)cnc2C(C)OC)c2c3cc(ccc31)-c1csc(n1)CC(NC(=O)C1CC1C)C(=O)N1CCCC(N1)C(=O)OCC(C)(C)C2 was tested. Which IC50 (second compound 0.000949 µM) did it give?
Answer: 83.6 nM

Question: And the IC50 (second compound 0.003 µM)?
Answer: 57.1 nM

Question: What about the IC50 (second compound 0.00949 µM) of the same compound?
Answer: 18.5 nM

Question: What about the IC50 (second compound 0.03 µM) of the same compound?
Answer: 3.92 nM

Question: And the IC50 (second compound 0.0949 µM)?
Answer: < 0.949 nM

Question: And the IC50 (second compound 0.3 µM)?
Answer: < 0.949 nM

Question: And the viability, T/C (second compound 0.000949 µM, first compound 0.000949 µM)?
Answer: 105%

Question: And the viability, T/C (second compound 0.000949 µM, first compound 0.003 µM)?
Answer: 89.6%

Question: And the viability, T/C (second compound 0.000949 µM, first compound 0.00949 µM)?
Answer: 81.6%

Question: What about the viability, T/C (second compound 0.000949 µM, first compound 0.03 µM) of the same compound?
Answer: 52.6%

Question: What about the viability, T/C (second compound 0.000949 µM, first compound 0.0949 µM) of the same compound?
Answer: 53.1%

Question: What about the viability, T/C (second compound 0.000949 µM, first compound 0.3 µM) of the same compound?
Answer: 44.3%

Question: And the viability, T/C (second compound 0.003 µM, first compound 0.000949 µM)?
Answer: 91.6%

Question: And the viability, T/C (second compound 0.003 µM, first compound 0.003 µM)?
Answer: 75.3%

Question: And the viability, T/C (second compound 0.003 µM, first compound 0.00949 µM)?
Answer: 76%

Question: And the viability, T/C (second compound 0.003 µM, first compound 0.03 µM)?
Answer: 54.7%

Question: And the viability, T/C (second compound 0.003 µM, first compound 0.0949 µM)?
Answer: 43.8%

Question: And the viability, T/C (second compound 0.003 µM, first compound 0.3 µM)?
Answer: 36.4%

Question: And the viability, T/C (second compound 0.00949 µM, first compound 0.000949 µM)?
Answer: 69.5%

Question: What about the viability, T/C (second compound 0.00949 µM, first compound 0.003 µM) of the same compound?
Answer: 56.6%

Question: And the viability, T/C (second compound 0.00949 µM, first compound 0.00949 µM)?
Answer: 66.7%

Question: And the viability, T/C (second compound 0.00949 µM, first compound 0.03 µM)?
Answer: 39.6%

Question: And the viability, T/C (second compound 0.00949 µM, first compound 0.0949 µM)?
Answer: 29.3%

Question: And the viability, T/C (second compound 0.00949 µM, first compound 0.3 µM)?
Answer: 22.5%

Question: What about the viability, T/C (second compound 0.03 µM, first compound 0.000949 µM) of the same compound?
Answer: 53.4%

Question: What about the viability, T/C (second compound 0.03 µM, first compound 0.003 µM) of the same compound?
Answer: 52.8%

Question: And the viability, T/C (second compound 0.03 µM, first compound 0.00949 µM)?
Answer: 43.3%

Question: What about the viability, T/C (second compound 0.03 µM, first compound 0.03 µM) of the same compound?
Answer: 24.7%

Question: What about the viability, T/C (second compound 0.03 µM, first compound 0.0949 µM) of the same compound?
Answer: 22.8%

Question: And the viability, T/C (second compound 0.03 µM, first compound 0.3 µM)?
Answer: 13.9%

Question: And the viability, T/C (second compound 0.0949 µM, first compound 0.000949 µM)?
Answer: 19.6%

Question: What about the viability, T/C (second compound 0.0949 µM, first compound 0.003 µM) of the same compound?
Answer: 24.4%

Question: What about the viability, T/C (second compound 0.0949 µM, first compound 0.00949 µM) of the same compound?
Answer: 17.5%

Question: What about the viability, T/C (second compound 0.0949 µM, first compound 0.03 µM) of the same compound?
Answer: 12.3%

Question: What about the viability, T/C (second compound 0.0949 µM, first compound 0.0949 µM) of the same compound?
Answer: 13.2%

Question: What about the viability, T/C (second compound 0.0949 µM, first compound 0.3 µM) of the same compound?
Answer: 9.33%

Question: And the viability, T/C (second compound 0.3 µM, first compound 0.000949 µM)?
Answer: 12.4%

Question: What about the viability, T/C (second compound 0.3 µM, first compound 0.003 µM) of the same compound?
Answer: 15.5%

Question: And the viability, T/C (second compound 0.3 µM, first compound 0.00949 µM)?
Answer: 11.4%

Question: What about the viability, T/C (second compound 0.3 µM, first compound 0.03 µM) of the same compound?
Answer: 10.8%

Question: And the viability, T/C (second compound 0.3 µM, first compound 0.0949 µM)?
Answer: 10.3%

Question: What about the viability, T/C (second compound 0.3 µM, first compound 0.3 µM) of the same compound?
Answer: 6.55%

Question: How did the IC50 (second compound 0.000949 µM) turn out when `C=CC(=O)Nc1cc(Nc2nccc(-c3cn(C)c4ccccc34)n2)c(OC)cc1N(C)CCN(C)C` + CCn1c(-c2cccnc2C(C)OC)c2c3cc(ccc31)N1CCOC(CC(NC(=O)C(C(C)C)N(C)C(=O)C3(F)CCN(C(=O)C#CC(C)(C)N(C)C)CC3)C(=O)N3CCCC(N3)C(=O)OCC(C)(C)C2)C1 was run?
Answer: 85 nM

Question: What about the IC50 (second compound 0.003 µM) of the same compound?
Answer: 21.5 nM

Question: And the IC50 (second compound 0.00949 µM)?
Answer: < 3.16 nM

Question: What about the IC50 (second compound 0.03 µM) of the same compound?
Answer: < 3.16 nM

Question: And the IC50 (second compound 0.0949 µM)?
Answer: < 3.16 nM

Question: And the IC50 (second compound 0.3 µM)?
Answer: < 3.16 nM

Question: And the viability, T/C (second compound 0.000949 µM, first compound 0.00316 µM)?
Answer: 76.9%

Question: What about the viability, T/C (second compound 0.000949 µM, first compound 0.01 µM) of the same compound?
Answer: 63.9%

Question: And the viability, T/C (second compound 0.000949 µM, first compound 0.0316 µM)?
Answer: 77.4%

Question: What about the viability, T/C (second compound 0.000949 µM, first compound 0.1 µM) of the same compound?
Answer: 44.5%

Question: What about the viability, T/C (second compound 0.000949 µM, first compound 0.316 µM) of the same compound?
Answer: 20.1%

Question: And the viability, T/C (second compound 0.000949 µM, first compound 1 µM)?
Answer: 8.96%

Question: What about the viability, T/C (second compound 0.003 µM, first compound 0.00316 µM) of the same compound?
Answer: 59.5%

Question: And the viability, T/C (second compound 0.003 µM, first compound 0.01 µM)?
Answer: 51.5%

Question: What about the viability, T/C (second compound 0.003 µM, first compound 0.0316 µM) of the same compound?
Answer: 48.8%

Question: What about the viability, T/C (second compound 0.003 µM, first compound 0.1 µM) of the same compound?
Answer: 24.4%

Question: And the viability, T/C (second compound 0.003 µM, first compound 0.316 µM)?
Answer: 14.3%

Question: And the viability, T/C (second compound 0.003 µM, first compound 1 µM)?
Answer: 10.2%

Question: And the viability, T/C (second compound 0.00949 µM, first compound 0.00316 µM)?
Answer: 39.2%

Question: And the viability, T/C (second compound 0.00949 µM, first compound 0.01 µM)?
Answer: 41.6%

Question: What about the viability, T/C (second compound 0.00949 µM, first compound 0.0316 µM) of the same compound?
Answer: 28.4%

Question: And the viability, T/C (second compound 0.00949 µM, first compound 0.1 µM)?
Answer: 20.9%

Question: And the viability, T/C (second compound 0.00949 µM, first compound 0.316 µM)?
Answer: 11.1%

Question: And the viability, T/C (second compound 0.00949 µM, first compound 1 µM)?
Answer: 8.95%

Question: What about the viability, T/C (second compound 0.03 µM, first compound 0.00316 µM) of the same compound?
Answer: 37%

Question: And the viability, T/C (second compound 0.03 µM, first compound 0.01 µM)?
Answer: 30.9%

Question: What about the viability, T/C (second compound 0.03 µM, first compound 0.0316 µM) of the same compound?
Answer: 28.4%

Question: And the viability, T/C (second compound 0.03 µM, first compound 0.1 µM)?
Answer: 18.1%

Question: What about the viability, T/C (second compound 0.03 µM, first compound 0.316 µM) of the same compound?
Answer: 9.5%

Question: What about the viability, T/C (second compound 0.03 µM, first compound 1 µM) of the same compound?
Answer: 9.54%

Question: And the viability, T/C (second compound 0.0949 µM, first compound 0.00316 µM)?
Answer: 34%

Question: And the viability, T/C (second compound 0.0949 µM, first compound 0.01 µM)?
Answer: 32.4%

Question: And the viability, T/C (second compound 0.0949 µM, first compound 0.0316 µM)?
Answer: 26.2%

Question: What about the viability, T/C (second compound 0.0949 µM, first compound 0.1 µM) of the same compound?
Answer: 16.2%

Question: And the viability, T/C (second compound 0.0949 µM, first compound 0.316 µM)?
Answer: 11%

Question: What about the viability, T/C (second compound 0.0949 µM, first compound 1 µM) of the same compound?
Answer: 9%

Question: What about the viability, T/C (second compound 0.3 µM, first compound 0.00316 µM) of the same compound?
Answer: 34%

Question: What about the viability, T/C (second compound 0.3 µM, first compound 0.01 µM) of the same compound?
Answer: 28.9%

Question: What about the viability, T/C (second compound 0.3 µM, first compound 0.0316 µM) of the same compound?
Answer: 25.3%

Question: What about the viability, T/C (second compound 0.3 µM, first compound 0.1 µM) of the same compound?
Answer: 16.5%

Question: What about the viability, T/C (second compound 0.3 µM, first compound 0.316 µM) of the same compound?
Answer: 10.1%

Question: What about the viability, T/C (second compound 0.3 µM, first compound 1 µM) of the same compound?
Answer: 9.52%
